{"source": "ChEMBL document CHEMBL1201862", "about": "“PubChem BioAssay data set” (2004)", "key": {"[1]": {"biological_target": "ADP-ribosylation factor GTPase-activating protein 1 (Rattus norvegicus, UniProt Q62848)", "sequence (Q62848 whole entry)": "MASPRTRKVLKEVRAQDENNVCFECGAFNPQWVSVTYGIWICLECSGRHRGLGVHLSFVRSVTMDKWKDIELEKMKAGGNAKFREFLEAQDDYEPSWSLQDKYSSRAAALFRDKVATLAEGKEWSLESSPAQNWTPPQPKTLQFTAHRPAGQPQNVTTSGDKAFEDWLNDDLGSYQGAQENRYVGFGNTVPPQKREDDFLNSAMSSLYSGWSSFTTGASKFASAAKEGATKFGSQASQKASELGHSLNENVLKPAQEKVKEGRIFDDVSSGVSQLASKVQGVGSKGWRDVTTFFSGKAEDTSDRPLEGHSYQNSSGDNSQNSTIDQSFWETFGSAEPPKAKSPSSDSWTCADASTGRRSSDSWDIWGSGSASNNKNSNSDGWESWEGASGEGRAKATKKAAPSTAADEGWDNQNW", "assay": "Fluorescence polarization-based biochemical high throughput dose response screening assay to identify inhibitors of ADP-ribosylation factor GTPase activating protein 1 (ARFGAP1).", "assay_type": "functional"}, "[2]": {"assay": "Trypanosoma cruzi growth suppression in host cells – NIH3T3 host cells, beta-gal luminescence, confirmation (AID 2044);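 further: luminescent beta-galactosidase reporter signal from transgenic T. cruzi replicating inside host cells; inhibitors lower the luminescence signal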", "assay_type": "functional, cell-based"}, "[3]": {"assay": "microbe, parasite or virus in culture", "assay_type": "functional", "conditions": "Mycobacterium tuberculosis"}, "[4]": {"assay": "NIH3T3 cell viability loss – ATP luminescence, mouse fibroblasts, counter-screen, dose response (AID 2010);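 further: cells exposed to compound for about 90 hours before reading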", "assay_type": "functional, cell-based"}, "Saccharomyces cerevisiae": {"system": "Saccharomyces cerevisiae", "assay": "S. cerevisiae Caspase-1/ASC signal blockers IC50, NALP1 inhibitor project selectivity test (AID 488863)", "assay_type": "functional, organism-based"}, "[5]": {"assay": "Luminescence Cell-Based Dose Retest to Confirm Inhibitors of Cancer Stem Cells. [Related pubchem assays (depositor defined):AID2717, AID2721]", "assay_type": "functional", "conditions": "Homo sapiens"}, "[6]": {"biological_target": "T1, NACHT, LRR and PYD domains-containing protein 1 (Homo sapiens, UniProt Q9C000)", "T1 sequence (Q9C000 whole entry)": "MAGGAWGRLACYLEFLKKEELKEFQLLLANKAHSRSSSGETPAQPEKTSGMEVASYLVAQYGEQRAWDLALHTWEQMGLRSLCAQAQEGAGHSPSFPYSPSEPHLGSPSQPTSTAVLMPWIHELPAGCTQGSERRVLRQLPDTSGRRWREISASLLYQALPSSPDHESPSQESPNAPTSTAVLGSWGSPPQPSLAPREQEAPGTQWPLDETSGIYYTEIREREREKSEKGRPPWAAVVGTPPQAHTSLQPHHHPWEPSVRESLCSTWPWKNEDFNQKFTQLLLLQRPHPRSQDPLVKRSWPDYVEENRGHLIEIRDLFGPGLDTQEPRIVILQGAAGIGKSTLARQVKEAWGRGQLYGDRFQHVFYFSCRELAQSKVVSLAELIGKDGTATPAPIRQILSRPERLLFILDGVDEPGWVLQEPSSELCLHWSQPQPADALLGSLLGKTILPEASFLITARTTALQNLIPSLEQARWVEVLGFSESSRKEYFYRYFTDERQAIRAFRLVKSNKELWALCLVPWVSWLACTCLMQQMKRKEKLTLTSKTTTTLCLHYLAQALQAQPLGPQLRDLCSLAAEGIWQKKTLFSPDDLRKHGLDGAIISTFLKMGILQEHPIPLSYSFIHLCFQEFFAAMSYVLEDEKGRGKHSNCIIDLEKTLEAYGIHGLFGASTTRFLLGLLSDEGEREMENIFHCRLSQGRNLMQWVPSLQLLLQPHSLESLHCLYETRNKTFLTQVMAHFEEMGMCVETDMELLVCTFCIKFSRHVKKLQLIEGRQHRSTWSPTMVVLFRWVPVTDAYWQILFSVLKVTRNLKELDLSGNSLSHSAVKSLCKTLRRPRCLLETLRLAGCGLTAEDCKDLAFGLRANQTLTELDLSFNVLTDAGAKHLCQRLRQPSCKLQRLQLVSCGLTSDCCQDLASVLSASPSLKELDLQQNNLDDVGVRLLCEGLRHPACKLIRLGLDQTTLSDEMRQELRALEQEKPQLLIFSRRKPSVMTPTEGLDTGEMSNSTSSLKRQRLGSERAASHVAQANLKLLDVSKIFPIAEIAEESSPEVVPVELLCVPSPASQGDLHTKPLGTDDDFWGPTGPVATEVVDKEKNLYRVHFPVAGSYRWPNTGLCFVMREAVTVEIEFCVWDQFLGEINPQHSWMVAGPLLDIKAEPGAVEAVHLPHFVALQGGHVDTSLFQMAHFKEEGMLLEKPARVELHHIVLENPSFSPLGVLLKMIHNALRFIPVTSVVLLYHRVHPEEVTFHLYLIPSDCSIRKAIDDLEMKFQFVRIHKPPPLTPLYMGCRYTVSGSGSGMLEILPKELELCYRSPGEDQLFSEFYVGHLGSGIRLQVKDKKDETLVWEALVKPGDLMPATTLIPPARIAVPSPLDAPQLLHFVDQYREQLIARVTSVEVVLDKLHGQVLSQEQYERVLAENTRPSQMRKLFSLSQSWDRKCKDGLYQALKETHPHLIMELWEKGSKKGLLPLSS", "assay": "NALP1 inhibitors in yeast, dose response, luminescent (AID 488860)", "assay_type": "functional"}, "[7]": {"assay": "cytotoxicity toward MDA-MB-231 breast cancer cells – cell-based, CellTiter-Glo luminescence, cherry-pick, cytotoxicity control for RAD54 inhibitor project, dose response (AID 651692)", "assay_type": "functional"}, "[8]": {"biological_target": "T2, DNA repair and recombination protein RAD54-like (Homo sapiens, UniProt Q92698)", "T2 sequence (Q92698 whole entry)": "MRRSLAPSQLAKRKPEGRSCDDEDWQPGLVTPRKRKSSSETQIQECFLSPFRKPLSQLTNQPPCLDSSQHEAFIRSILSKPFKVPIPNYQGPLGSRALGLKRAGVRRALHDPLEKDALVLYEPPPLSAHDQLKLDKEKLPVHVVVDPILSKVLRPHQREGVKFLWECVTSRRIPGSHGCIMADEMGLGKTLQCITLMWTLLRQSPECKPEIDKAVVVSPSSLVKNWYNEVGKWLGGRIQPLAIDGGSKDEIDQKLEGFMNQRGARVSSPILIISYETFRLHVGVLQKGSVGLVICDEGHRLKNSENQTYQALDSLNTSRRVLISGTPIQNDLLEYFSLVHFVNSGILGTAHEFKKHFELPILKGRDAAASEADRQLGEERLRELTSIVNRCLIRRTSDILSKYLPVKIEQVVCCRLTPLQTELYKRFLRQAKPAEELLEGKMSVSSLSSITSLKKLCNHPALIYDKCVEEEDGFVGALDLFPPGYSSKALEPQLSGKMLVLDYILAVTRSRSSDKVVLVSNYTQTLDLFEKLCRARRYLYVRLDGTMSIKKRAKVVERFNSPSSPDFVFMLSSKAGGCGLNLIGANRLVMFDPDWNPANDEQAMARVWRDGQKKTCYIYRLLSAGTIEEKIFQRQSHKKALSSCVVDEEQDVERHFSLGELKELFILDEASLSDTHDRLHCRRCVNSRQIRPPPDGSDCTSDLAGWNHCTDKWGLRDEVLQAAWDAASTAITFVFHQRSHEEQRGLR", "assay": "RAD54 Holliday junction migration blockers – biochemical, fluorescence, cherry-picked samples, dose series, confirmation (AID 651657)", "assay_type": "functional"}, "[9]": {"biological_target": "T3, DNA repair protein RAD52 homolog (Homo sapiens, UniProt P43351)", "T3 sequence (P43351 whole entry)": "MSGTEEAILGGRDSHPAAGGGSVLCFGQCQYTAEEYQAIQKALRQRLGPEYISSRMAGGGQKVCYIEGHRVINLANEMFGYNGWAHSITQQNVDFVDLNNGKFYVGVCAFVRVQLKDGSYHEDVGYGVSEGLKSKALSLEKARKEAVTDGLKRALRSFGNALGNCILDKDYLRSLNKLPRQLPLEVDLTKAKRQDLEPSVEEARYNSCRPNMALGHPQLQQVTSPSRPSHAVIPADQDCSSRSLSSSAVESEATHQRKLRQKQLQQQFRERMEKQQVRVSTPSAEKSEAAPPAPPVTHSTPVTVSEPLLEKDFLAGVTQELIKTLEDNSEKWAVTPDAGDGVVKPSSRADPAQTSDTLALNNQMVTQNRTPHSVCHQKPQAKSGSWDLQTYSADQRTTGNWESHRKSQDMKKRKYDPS", "assay_type": "functional, biochemical"}, "[10]": {"assay": "NIH-3T3 fibroblast cytotoxicity, dose response, cytotoxicity control, cell-based, fluorescence, Alamar Blue, secondary assay (AID 2327);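 further: NIH-3T3 mouse fibroblasts cultured with fluconazole at 8 µg/mL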", "assay_type": "functional"}, "[11]": {"assay": "fluconazole-exposed Candida albicans growth modulators – fluorescence, retest, confirmation (AID 2467)", "assay_type": "functional, cell-based"}, "[12]": {"assay": "viability of PTEN-deleted HCT116 cells – cell-based, HCT116 PTEN knockout, dose response (AID 1047);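 further: cells exposed to compound for 60 hours before readout; potency for loss of cell viability measured by luminescence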", "assay_type": "functional"}, "[13]": {"assay": "viability of HCT116 lacking mutant beta-catenin – cell-based, human colon tumor, dose response (AID 1045);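 further: cells exposed to compound for 60 hours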", "assay_type": "functional"}, "[14]": {"assay": "activation of miR-122 Renilla sensor silencing – cell-based, Huh7 psiCHECK-miR122, Renilla luciferase, cherry-picked, dose response (AID 651956);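 further: huh7 hepatoma cells stably carrying a psiCHECK-2 miR-122 sensor plasmid; renilla luciferase signal reporting endogenous miR-122 activity after 48 h compound exposure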", "assay_type": "functional"}, "[15]": {"assay": "general mammalian cell viability loss – activator set, cherry-pick, cytotoxicity control for miR-122 modulator project, dose response (AID 720690);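 further: HEK293T human cells scored for general mammalian cytotoxicity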", "assay_type": "functional, cell-based"}, "[16]": {"biological_target": "T4, Sentrin-specific protease 1 (Homo sapiens, UniProt Q9P0U3)", "T4 sequence (Q9P0U3 whole entry, the tested form may be a part)": "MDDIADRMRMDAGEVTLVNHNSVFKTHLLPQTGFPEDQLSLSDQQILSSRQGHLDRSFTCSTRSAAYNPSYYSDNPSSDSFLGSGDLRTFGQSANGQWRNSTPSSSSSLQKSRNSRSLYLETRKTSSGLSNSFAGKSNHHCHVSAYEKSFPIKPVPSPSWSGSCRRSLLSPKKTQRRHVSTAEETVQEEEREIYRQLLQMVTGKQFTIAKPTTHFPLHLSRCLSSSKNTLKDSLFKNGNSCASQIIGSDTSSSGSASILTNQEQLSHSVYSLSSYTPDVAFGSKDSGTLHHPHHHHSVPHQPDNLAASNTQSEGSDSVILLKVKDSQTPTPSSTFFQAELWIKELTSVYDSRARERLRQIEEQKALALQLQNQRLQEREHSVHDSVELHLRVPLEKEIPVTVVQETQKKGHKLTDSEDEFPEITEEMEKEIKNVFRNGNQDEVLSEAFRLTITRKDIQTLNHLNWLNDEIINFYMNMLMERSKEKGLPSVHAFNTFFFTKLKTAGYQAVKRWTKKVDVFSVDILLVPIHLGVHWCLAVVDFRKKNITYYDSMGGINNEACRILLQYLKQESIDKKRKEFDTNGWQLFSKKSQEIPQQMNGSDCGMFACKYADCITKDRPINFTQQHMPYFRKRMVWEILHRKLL", "assay": "SENP1 catalytic domain blockers, concentration series – biochemical, kinetic FRET, dose response (AID 651697)", "assay_type": "functional", "conditions": "read-out: IC50_Mean"}, "[17]": {"biological_target": "T4, Sentrin-specific protease 1", "assay": "Dose response confirmation of small molecule inhibitors of the catalytic domain of the SUMO protease, SENP1 in a FRET assay.", "assay_type": "functional", "conditions": "read-out: IC50_Mean"}, "[18]": {"assay": "viability loss in HeLa cells – cytotoxicity control for MgcRacGAP inhibitor project, dose response (AID 624300)", "assay_type": "functional"}, "[19]": {"biological_target": "T5, Rac GTPase-activating protein 1 (Homo sapiens, UniProt Q9H0H5)", "T5 sequence (Q9H0H5 whole entry)": "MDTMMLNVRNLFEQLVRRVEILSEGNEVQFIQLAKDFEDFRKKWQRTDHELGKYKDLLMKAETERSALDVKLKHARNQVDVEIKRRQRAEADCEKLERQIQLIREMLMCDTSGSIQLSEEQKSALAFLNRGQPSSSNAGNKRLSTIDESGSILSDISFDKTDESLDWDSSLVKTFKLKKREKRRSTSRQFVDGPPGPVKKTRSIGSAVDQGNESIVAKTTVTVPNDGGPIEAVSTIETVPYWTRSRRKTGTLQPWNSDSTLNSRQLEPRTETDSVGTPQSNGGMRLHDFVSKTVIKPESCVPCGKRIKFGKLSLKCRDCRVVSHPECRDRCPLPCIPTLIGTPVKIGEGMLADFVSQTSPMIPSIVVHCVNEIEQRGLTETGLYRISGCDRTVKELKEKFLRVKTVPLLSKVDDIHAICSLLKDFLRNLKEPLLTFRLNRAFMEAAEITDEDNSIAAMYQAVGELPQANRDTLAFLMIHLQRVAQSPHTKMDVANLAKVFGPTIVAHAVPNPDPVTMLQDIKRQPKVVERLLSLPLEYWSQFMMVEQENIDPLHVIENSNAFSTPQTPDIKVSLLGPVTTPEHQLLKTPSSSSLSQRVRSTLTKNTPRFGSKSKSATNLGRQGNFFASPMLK", "assay": "blockers of MgcRacGAP-driven Rac1 GTP hydrolysis – biochemical, ADP Hunter fluorescence, primary and confirmatory, confirmation (AID 624330)", "assay_type": "functional"}, "[20]": {"biological_target": "Broad substrate specificity ATP-binding cassette transporter ABCG2 (Homo sapiens, UniProt Q9UNQ0)", "sequence (Q9UNQ0 whole entry)": "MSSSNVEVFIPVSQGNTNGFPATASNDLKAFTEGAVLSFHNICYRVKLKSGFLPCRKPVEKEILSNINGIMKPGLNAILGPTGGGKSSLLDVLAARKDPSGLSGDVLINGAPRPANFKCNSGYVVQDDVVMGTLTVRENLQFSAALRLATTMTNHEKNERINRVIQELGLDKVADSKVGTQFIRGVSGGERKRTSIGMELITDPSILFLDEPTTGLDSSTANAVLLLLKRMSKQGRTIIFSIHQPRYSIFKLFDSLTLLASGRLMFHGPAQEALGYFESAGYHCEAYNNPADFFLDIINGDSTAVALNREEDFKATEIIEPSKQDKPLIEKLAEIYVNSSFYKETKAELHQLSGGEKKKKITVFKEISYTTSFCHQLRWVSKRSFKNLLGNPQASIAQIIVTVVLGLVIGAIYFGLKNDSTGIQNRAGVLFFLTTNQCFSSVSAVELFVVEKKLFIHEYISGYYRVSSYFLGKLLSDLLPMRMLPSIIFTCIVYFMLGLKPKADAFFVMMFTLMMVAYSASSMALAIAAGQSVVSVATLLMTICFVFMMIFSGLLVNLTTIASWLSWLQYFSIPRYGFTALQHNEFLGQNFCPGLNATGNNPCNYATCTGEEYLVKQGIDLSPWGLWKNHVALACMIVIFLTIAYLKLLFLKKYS", "assay": "blockers of JC-1 export by ABCG2 – Ig-MXP3 cells, flow cytometry, dose response (AID 1690)", "assay_type": "functional"}}, "note": "The source made the active and inactive calls."}
{"smiles": "O=C(Nc1ccc(-c2nc3ccccc3[nH]2)cc1)c1ccc2c(c1)OCO2", "values": [{"measurement": "IC50", "setting": "[1]", "value": "42 µM (inactive)"}]}
{"smiles": "OC(CN1CCCCC1)Cn1c2ccc(Cl)cc2c2cc(Cl)ccc21", "note": "(stereo not drawn)", "values": [{"measurement": "EC50", "setting": "[2]", "value": "2.43 µM (active)"}, {"measurement": "CC50", "setting": "[3]", "value": "14.5 µM (active)"}, {"measurement": "EC50", "setting": "[4]", "value": "10.8 µM (active)"}, {"measurement": "IC50", "setting": "Saccharomyces cerevisiae", "value": "7.1 µM (active)"}, {"measurement": "AC50", "setting": "[5]", "value": "5.53 µM (active)"}, {"measurement": "IC50", "setting": "[6]", "value": "10.2 µM (active)"}, {"measurement": "AC50", "setting": "[7]", "value": "32.1 µM (active)"}, {"measurement": "AC50", "setting": "[8]", "value": "27.2 µM (active)"}, {"measurement": "AC50", "setting": "[9]", "value": "12.1 µM (active)"}]}
{"smiles": "N=c1c2c(-c3ccccc3)c(-c3ccccc3)n(Cc3ccccc3)c2ncn1CCO", "values": [{"measurement": "EC50", "setting": "[10]", "value": "> 150 µM (inactive)"}, {"measurement": "EC50", "setting": "[11]", "value": "> 38 µM (not active)"}, {"measurement": "EC50", "setting": "[2]", "value": "2.42 µM (active)"}, {"measurement": "EC50", "setting": "[12]", "value": "0.555 µM (active)"}, {"measurement": "EC50", "setting": "[4]", "value": "> 30 µM (not active)"}, {"measurement": "EC50", "setting": "[13]", "value": "0.637 µM (active)"}, {"measurement": "AC50", "setting": "[14]", "value": "30.5 µM (active)"}, {"measurement": "AC50", "setting": "[15]", "value": "23.4 µM (active)"}]}
{"smiles": "CCOC(=O)/C=C/c1cc(F)ccc1O", "values": [{"measurement": "IC50", "setting": "[16]", "value": "13.8 µM (active)"}, {"measurement": "IC50", "setting": "[17]", "value": "11.2 µM (active)"}]}
{"smiles": "COc1cc(/C=N/NC(=O)CCn2c3ccccc3c3ccccc32)ccc1O", "values": [{"measurement": "CC50", "setting": "[18]", "value": "100 µM (active)"}, {"measurement": "IC50", "setting": "[19]", "value": "85.8 µM (active)"}]}
{"smiles": "CC1=NN(c2ccc([N+](=O)[O-])cc2)C(=O)/C1=C/N(C)C", "values": [{"measurement": "EC50", "setting": "[20]", "value": "4 µM (active)"}]}
